Columns and labels:
SK-OV-3 MDR-1/M-6-6 [1] = conditions: other colchicine site agents; cited from earlier work
MDA-MB-435 = test: Breast cancer/endothelial cell IC50, MDA-MB-435; assay type: cell-based; conditions: Homo sapiens, MDA-MB-435, read-out: IC50, MDA-MB-435
MDA-MB-231 = test: Breast cancer/endothelial cell IC50, MDA-MB-231; assay type: cell-based; conditions: Homo sapiens, MDA-MB-231, read-out: IC50, MDA-MB-231
MCF-7 = test: Breast cancer/endothelial cell IC50, MCF-7; assay type: cell-based; conditions: Homo sapiens, MCF7, read-out: IC50, MCF-7
4T-1 = test: Breast cancer/endothelial cell IC50, 4T-1; assay type: cell-based, murine; conditions: Mus musculus, 4T1, read-out: IC50, 4T-1
HUVEC endothelial cells = test: Breast cancer/endothelial cell IC50, HUVEC; assay type: cell-based; conditions: Homo sapiens, read-out: IC50, HUVEC
[2] = test system: cellular microtubules in A-10 cells; test: Loss of cellular microtubules, indirect immunofluorescence in A-10 cells; assay type: cell-based
HeLa cells = test: Cell cycle analysis by flow cytometry; assay type: cell-based; conditions: 40 and 50 nM 11, 75 and 100 nM 21, 18 h
MDA-MB-435 cells = test: Apoptosis detection, Western blot of cleaved PARP; assay type: cell-based, human
[3] = target: purified porcine brain tubulin (Sus scrofa, UniProt P02554); test: In vitro tubulin polymerization; conditions: 10 μM compound
Chain of purified porcine brain tubulin (P02554 whole entry): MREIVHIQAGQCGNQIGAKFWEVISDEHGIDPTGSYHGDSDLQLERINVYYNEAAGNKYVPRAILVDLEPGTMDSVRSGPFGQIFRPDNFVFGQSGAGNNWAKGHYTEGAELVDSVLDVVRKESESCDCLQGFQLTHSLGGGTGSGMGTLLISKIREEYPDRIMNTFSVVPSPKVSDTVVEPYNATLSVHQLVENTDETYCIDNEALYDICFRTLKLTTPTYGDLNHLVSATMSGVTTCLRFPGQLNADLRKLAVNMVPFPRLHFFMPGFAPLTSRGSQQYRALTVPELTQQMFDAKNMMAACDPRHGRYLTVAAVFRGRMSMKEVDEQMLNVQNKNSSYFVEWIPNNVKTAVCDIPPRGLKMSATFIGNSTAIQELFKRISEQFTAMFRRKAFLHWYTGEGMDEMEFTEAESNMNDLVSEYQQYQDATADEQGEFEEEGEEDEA
Chain of purified porcine brain tubulin (P02550 whole entry, further chain): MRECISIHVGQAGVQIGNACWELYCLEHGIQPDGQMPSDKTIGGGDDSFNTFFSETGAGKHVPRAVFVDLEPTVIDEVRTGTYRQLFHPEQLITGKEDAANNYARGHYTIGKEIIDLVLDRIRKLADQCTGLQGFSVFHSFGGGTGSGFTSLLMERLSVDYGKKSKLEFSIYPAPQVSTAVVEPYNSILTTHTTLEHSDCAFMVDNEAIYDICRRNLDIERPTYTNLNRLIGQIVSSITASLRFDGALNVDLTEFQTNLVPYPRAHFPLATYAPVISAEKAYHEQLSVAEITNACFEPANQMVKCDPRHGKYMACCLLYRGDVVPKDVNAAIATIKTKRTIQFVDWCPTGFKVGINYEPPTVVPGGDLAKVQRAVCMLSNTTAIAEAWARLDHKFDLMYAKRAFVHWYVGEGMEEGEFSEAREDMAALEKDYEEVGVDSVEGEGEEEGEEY

SK-OV-3 MDR-1/M-6-6 [4] = test: cells; conditions: Homo sapiens, SKOV3-MDR1-M6/6, read-out: Antiproliferative activity IC50, SK-OV-3 MDR-1/M-6-6
[5] = test system: MDA-MB-435 flank xenograft; test: MDA-MB-435 flank xenograft model; assay type: in vivo, NCr athymic nu/nu mice; conditions: vs carrier treated mice
4T1 orthotopic allograft = test: 4T1 triple negative breast orthotopic allograft model; conditions: 4T1 orthotopic model

**Q.** Which “Rr (relative resistance), Pgp-expressing SK-OV-3 pair” value (SK-OV-3 MDR-1/M-6-6 [1]) does the source give for `COc1cc2c(cc1O)CC[C@@H]1[C@@H]2CC[C@]2(C)[C@@H](O)CC[C@@H]12` [2-methoxyestradiol] here?
**A.** 1.5–2.6

**Q.** With `COc1ccc(/C=C\c2cc(OC)c(OC)c(OC)c2)cc1O` [CA-4, combretastatin A-4] as the molecule, how does the IC50 (MDA-MB-435) read?
**A.** 52.2 nM

**Q.** And the IC50 (MDA-MB-231)?
**A.** 228 ± 2.9 nM

**Q.** And the IC50 (MCF-7)?
**A.** 24.9 ± 1.4 nM

**Q.** What about the IC50 (4T-1) of the same molecule?
**A.** 69.6 ± 8 nM

**Q.** What about the IC50 (HUVEC endothelial cells) of the same molecule?
**A.** 17.7 ± 3.6 nM

**Q.** With `COc1ccc(Nc2nc(C)nc3oc(C)cc23)cc1` [Compound 10, N-(4-methoxyphenyl)-2,6-dimethylfuro[2,3-d]pyrimidin-4-amine] as the molecule, how does the “effect on cellular microtubules” value [2] read?
**A.** inactive

**Q.** For `COc1ccc(N(C)c2nc(C)nc3oc(C)cc23)cc1` [Compound 11, N-(4-methoxyphenyl)-N,2,6-trimethylfuro[2,3-d]pyrimidin-4-amine], which “effect on cell cycle distribution (G2/M)” value (HeLa cells) is on record?
**A.** initiated mitotic accumulation

**Q.** And the “cleaved PARP level” value (MDA-MB-435 cells; 75 nM 11, 18 h)?
**A.** slight increase in cleaved PARP

**Q.** What about the “cleaved PARP level” value (MDA-MB-435 cells; 36 h, 75 nM 11, 120 nM 21) of the same molecule?
**A.** much higher levels of cleaved PARP

**Q.** And the “inhibition of polymerization of purified tubulin” value [3]?
**A.** almost completely inhibited the polymerization of tubulin

**Q.** With `CCCCN(c1ccc(OC)cc1)c1nc(C)nc2oc(C)cc12` [Compound 14, N-butyl-N-(4-methoxyphenyl)-2,6-dimethylfuro[2,3-d]pyrimidin-4-amine] as the molecule, how does the IC50 (SK-OV-3 MDR-1/M-6-6 [4]) read?
**A.** > 10000 nM

**Q.** For `COc1ccc(N(C)c2nc(C)nc3oc(C)cc23)cc1.Cl` [Compound 21, N-(4-methoxyphenyl)-N,2,6-trimethylfuro[2,3-d]pyrimidin-4-amine hydrochloride], which “effect on cellular microtubules” value [2] is on record?
**A.** dose-dependent loss of cellular microtubules

**Q.** And the EC50 ([2]; read-out: EC50 for microtubule depolymerization, 18 h, 50% loss of cellular microtubules)?
**A.** 570 nM

**Q.** And the “effect on cell cycle distribution (G2/M)” value (HeLa cells)?
**A.** initiated dose-dependent mitotic accumulation

**Q.** What about the “tumor vascular density (CD31/PECAM-1 staining)” value [5] of the same molecule?
**A.** decreased tumor vascular density

**Q.** What about the animal weight loss (4T1 orthotopic allograft) of the same molecule?
**A.** less weight loss than docetaxel

**Q.** What about the primary tumor growth (4T1 orthotopic allograft; 21 twice weekly at MTD) of the same molecule?
**A.** as active as docetaxel at reducing primary tumor growth

**Q.** What about the lung metastases (4T1 orthotopic allograft; compared to docetaxel) of the same molecule?
**A.** reduced the size (Figure 9D; metastases at arrows) but not the number

**Q.** And the “inhibition of polymerization of purified tubulin” value [3]?
**A.** almost completely inhibited the polymerization of tubulin
